Each block holds one compound with its values, some of them ahead of it. Residues, ends and D or L forms follow the SMILES beside them. *: point of attachment. FITC = O=C1OC2(c3ccc(O)cc3Oc3cc(O)ccc32)c2ccc(NC(=S)*)cc21
Tests used:
GGA1 VHS = target: T1, GGA1 VHS (Homo sapiens, UniProt Q9UJY5); assay: FP saturation experiment, GGA1 VHS; details: FP saturation (direct binding), 5 nM FITC-labelled peptide, 50 mM sodium phosphate pH 7.4, room temperature; at least technical triplicates; reference for probe peptide RiboVD, Mihalič et al, to be published; read-out: KD [µM] + SE
T1 construct: GGA1_VHS__Q9UJY5_1_157; GST (cleaved yes); made in house; host or cells: Escherichia coli BL21-Gold(DE3)
T1 sequence (Q9UJY5 1-157): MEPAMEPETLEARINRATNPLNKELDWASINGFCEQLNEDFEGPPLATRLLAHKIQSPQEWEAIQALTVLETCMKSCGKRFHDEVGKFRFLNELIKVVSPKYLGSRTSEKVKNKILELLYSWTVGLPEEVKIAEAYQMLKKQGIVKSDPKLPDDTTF
Experimental: (§1) FP experiments were performed as described previously (Kliche et al, [2021]). Shortly, in order to monitor the binding event, FITC‐labelled peptides were used (excitation 495 nm, emission: 535 nm) and the FP signal was recorded in mP on a SpectraMax iD5 Multi‐Mode Microplate Reader (Molecular Devices) by measuring the emitted light in two angels. The measurements were performed at room temperature and prepared in nonbinding black half area 96‐well microplates (Corning®; 50 μl/well). For measuring direct binding, that is saturation curves, a 1:1 dilution series of protein domain (25 μl/well) was generated in 50 mM sodium phosphate buffer pH 7.4 and the measurement performed with 5 nM FITC‐labelled peptide (25 μl/well). The buffer‐corrected values were subsequently plotted with PRISM and fitted to the quadratic equation (Gianni et al, [2005]).

PDCD6IP Alix V domain = target: T2, PDCD6IP Alix V domain (Homo sapiens, UniProt Q8WUM4); assay: FP saturation experiment, PDCD6IP Alix V domain; details: FP saturation (direct binding), 5 nM FITC-labelled peptide, 50 mM sodium phosphate pH 7.4, room temperature; at least technical triplicates; reference for probe peptide RiboVD, Mihalič et al, to be published; read-out: KD [µM] + SE
T2 construct: GST (cleaved yes); made in house; host or cells: Escherichia coli BL21-Gold(DE3)
T2 sequence (Q8WUM4 360-702): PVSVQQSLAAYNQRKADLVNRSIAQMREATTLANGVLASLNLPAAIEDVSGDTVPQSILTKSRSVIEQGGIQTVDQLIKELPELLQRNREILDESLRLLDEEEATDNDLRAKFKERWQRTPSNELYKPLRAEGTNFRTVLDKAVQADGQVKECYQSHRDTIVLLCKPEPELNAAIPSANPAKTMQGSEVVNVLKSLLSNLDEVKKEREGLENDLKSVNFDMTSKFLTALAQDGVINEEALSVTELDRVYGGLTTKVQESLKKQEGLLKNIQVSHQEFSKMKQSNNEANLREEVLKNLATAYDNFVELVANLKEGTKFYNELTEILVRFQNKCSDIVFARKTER
Experimental: as §1

GABARAPL2 ATG8 = target: T3, GABARAPL2 ATG8 (Homo sapiens, UniProt P60520); assay: FP saturation experiment, GABARAPL2 ATG8; details: FP saturation (direct binding), 5 nM FITC-labelled peptide, 50 mM sodium phosphate pH 7.4, room temperature; at least technical triplicates; reference for probe peptide PMID: 33436498; read-out: KD [µM] + SE
T3 construct: GABARAPL2_ATG8__P60520_2_115; GST (cleaved yes); made in house; host or cells: Escherichia coli BL21-Gold(DE3)
T3 sequence (P60520 2-115): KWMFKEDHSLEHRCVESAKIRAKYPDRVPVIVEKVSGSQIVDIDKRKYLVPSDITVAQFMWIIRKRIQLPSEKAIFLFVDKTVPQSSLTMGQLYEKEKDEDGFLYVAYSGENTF
Experimental: as §1

MAP1LC3B ATG8 = target: T4, MAP1LC3B ATG8 (Homo sapiens, UniProt Q9GZQ8); assay: FP saturation experiment, MAP1LC3B ATG8; details: FP saturation (direct binding), 5 nM FITC-labelled peptide, 50 mM sodium phosphate pH 7.4, room temperature; at least technical triplicates; reference for probe peptide PMID: 33436498; read-out: KD [µM] + SE
T4 construct: MAP1LC3B ATG8; made in house; host or cells: Escherichia coli BL21-Gold(DE3)
Experimental: as §1

KPNA4 ARM minor = target: T5, KPNA4 ARM minor (Homo sapiens, UniProt O00629); assay: FP saturation experiment, KPNA4 ARM (minor); details: FP saturation (direct binding), 5 nM FITC-labelled peptide, 50 mM sodium phosphate pH 7.4, room temperature; at least technical triplicates; reference for probe peptide PMID: 35044719; read-out: KD [µM] + SE
T5 construct: 60-487; GST (cleaved yes); made in house; host or cells: Escherichia coli BL21-Gold(DE3)
T5 sequence (O00629 60-487): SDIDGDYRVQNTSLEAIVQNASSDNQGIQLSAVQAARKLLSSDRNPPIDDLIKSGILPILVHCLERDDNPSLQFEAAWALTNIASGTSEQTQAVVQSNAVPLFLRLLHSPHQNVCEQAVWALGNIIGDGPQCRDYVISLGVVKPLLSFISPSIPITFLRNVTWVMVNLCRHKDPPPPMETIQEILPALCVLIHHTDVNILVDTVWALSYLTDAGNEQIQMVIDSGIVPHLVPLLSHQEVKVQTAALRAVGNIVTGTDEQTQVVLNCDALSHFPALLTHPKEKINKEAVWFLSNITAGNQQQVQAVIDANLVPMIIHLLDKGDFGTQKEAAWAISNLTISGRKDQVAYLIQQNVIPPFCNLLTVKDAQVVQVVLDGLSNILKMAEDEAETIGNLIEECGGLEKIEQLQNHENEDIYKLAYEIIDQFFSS
Experimental: as §1

RANBP2 RanBD1 4 = target: T6, RANBP2 RanBD1 4 (Homo sapiens, UniProt P49792); assay: FP saturation experiment, RANBP2 RanBD1 4; details: FP saturation (direct binding), 5 nM FITC-labelled peptide, 50 mM sodium phosphate pH 7.4, room temperature; at least technical triplicates; probe from this study; read-out: KD [µM] + SE
T6 construct: GST (cleaved yes); made in house; host or cells: Escherichia coli BL21-Gold(DE3)
T6 sequence (P49792 2924-3050): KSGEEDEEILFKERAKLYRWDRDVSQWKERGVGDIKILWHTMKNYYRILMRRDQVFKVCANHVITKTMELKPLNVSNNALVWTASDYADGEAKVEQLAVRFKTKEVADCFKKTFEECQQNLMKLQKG
Experimental: as §1

Kd (GGA1 VHS): 31 ± 4 µM
SMILES: CC[C@H](C)[C@H](NC(=O)[C@H](Cc1c[nH]cn1)NC(=O)[C@H](CC(C)C)NC(=O)[C@H](CC(C)C)NC(=O)[C@H](CC(=O)O)NC(=O)[C@H](CCC(=O)O)NC(=O)[C@H](CC(=O)O)NC(=O)[C@H](CO)NC(=O)[C@H](CC(=O)O)NC(=O)[C@H](CC(=O)O)NC(=S)Nc1ccc2c(c1)C(=O)OC21c2ccc(O)cc2Oc2cc(O)ccc21)C(=O)O [FITC-IGF2R] ({FITC}-DDSDEDLLHI-OH)

SMILES: CC(C)C[C@H](NC(=O)[C@H](CO)NC(=O)[C@@H](NC(=O)[C@H](CC(C)C)NC(=O)[C@@H]1CCCN1C(=O)[C@@H]1CCCN1C(=O)[C@H](Cc1ccc(O)cc1)NC(=O)[C@H](CC(C)C)NC(=O)[C@H](CO)NC(=S)Nc1ccc2c(c1)C(=O)OC21c2ccc(O)cc2Oc2cc(O)ccc21)[C@@H](C)O)C(=O)N[C@@H](CCCNC(=N)N)C(=O)O [FITC-HIV1_Gag] ({FITC}-SLYPPLTSLR-OH)
Kd (PDCD6IP Alix V domain): 3.6 ± 0.3 µM

SMILES: CC(C)C[C@H](NC(=O)[C@H](Cc1c[nH]cn1)NC(=O)[C@@H](NC(=O)[C@H](Cc1c[nH]c2ccccc12)NC(=O)[C@H](CC(=O)O)NC(=O)[C@H](CC(=O)O)NC(=O)[C@H](CC(=O)O)NC(=S)Nc1ccc2c(c1)C(=O)OC21c2ccc(O)cc2Oc2cc(O)ccc21)[C@@H](C)O)C(=O)N[C@@H](CO)C(=O)N[C@@H](CO)C(=O)N[C@@H](CCCCN)C(N)=O [FITC-SQSTM1]
Kd (GABARAPL2 ATG8): 11 ± 1 µM
Kd (MAP1LC3B ATG8): 2.5 ± 0.2 µM

Kd (KPNA4 ARM minor): 0.013 ± 0.0008 µM
SMILES: CC[C@H](C)[C@H](NC(=O)[C@H](C)NC(=O)[C@H](CCCNC(=N)N)NC(=O)CNC(=O)[C@@H](NC(=O)[C@H](CCCNC(=N)N)NC(=O)CNC(=O)[C@H](CCC(=O)O)NC(=O)[C@H](CCSC)NC(=O)[C@H](CCSC)NC(=O)[C@H](CC(=O)O)NC(=O)[C@H](Cc1ccc(O)cc1)NC(=O)[C@@H](NC(=O)[C@H](CCCNC(=N)N)NC(=O)[C@H](CCCCN)NC(=O)[C@@H]1CCCN1C(=S)Nc1ccc2c(c1)C(=O)OC21c2ccc(O)cc2Oc2cc(O)ccc21)[C@@H](C)O)C(C)C)C(N)=O [FITC-NCOR2] ({FITC}-PKRTYDMMEGRVGRAI-NH2)

Kd (RANBP2 RanBD1 4): 22 ± 1 µM
SMILES: CC(C)C[C@H](NC(=O)[C@H](C)NC(=O)[C@H](CCC(=O)O)NC(=O)[C@H](CCCCN)NC(=S)Nc1ccc2c(c1)C(=O)OC21c2ccc(O)cc2Oc2cc(O)ccc21)C(=O)N[C@@H](C)C(=O)N[C@H](C(=O)N1CCC[C@H]1C(=O)N[C@@H](CC(C)C)C(=O)N1CCC[C@H]1C(=O)N[C@@H](CCCCN)C(N)=O)[C@@H](C)O [FITC-C7orf25] ({FITC}-KEALATPLPK-NH2)
